Results published in patent US20190209501A1, “COMPOSITIONS AND METHODS OF USE OF BETA-HYDROXY-BETA-METHYLBUTYRATE (HMB) […] IN[…]” (Texas Tech University Office of Research Commercialization, priority 2018, published 2019).

Assays:
[1] = 1-repetition maximum and repetitions to failure, bench press and hip sled (leg press); type: in vivo, human; conditions: for 1RMBP (kg) Week 4 / 1RMBP (kg) Week 8: 1-repetition maximum bench press; for 1RMBP (kg) Week 4 / 1RMBP (kg) Week 8 / 1RMLP (kg) Week 8 / RTFBP (reps) Week 4 / RTFBP (reps) Week 8 / RTFLP (reps) Week 8: mean ± SE; for 1RMLP (kg) Week 8: 1-repetition maximum leg press; for 1RMBP Δ (%) / 1RMLP Δ (%) / RTFBP Δ (%) / RTFLP Δ (%): change baseline to week 8 relative to baseline; for RTFBP (reps) Week 4 / RTFBP (reps) Week 8: repetitions to failure bench press; for RTFBP (reps) Week 4 / RTFBP (reps) Week 8 / RTFLP (reps) Week 8: 70% of baseline 1-RM; for RTFLP (reps) Week 8: repetitions to failure leg press; for 1RMBP (kg) Δ / 1RMLP (kg) Δ / RTFBP (reps) Δ / RTFLP (reps) Δ: week 8 minus baseline
Excerpt: Assessments of muscular performance took place between 12:00 and 18:00 in the non-fasted state, and participants were instructed to follow their preferred food and fluid intake patterns prior to testing. The assessment began with a 5-minute warm up period using a self-selected pace on a stationary bicycle. This warm up period was followed by assessment of countermovement vertical jumps (CMVJ) performance, testing on a mechanized squat device, and muscular strength and endurance assessment on the bench press and hip sled exercises. At the 4-week assessment, the CMVJ and hip sled assessments were not performed.
Resistance exercise performance for the bench press and hip sled exercises was evaluated via the 1-repetition maximum (1RM) and repetitions to failure with 70% of the 1RM. The 1RM testing protocol was based on the recommendations of the National Strength and Conditioning Association (33). Briefly, after completing warm up sets, participants completed 2 to 3 repetitions using a load estimated to be near-maximal. 1RM attempts then commenced, with the goal of obtaining the 1RM in between 3 and 5 attempts. Three minutes of rest were allowed between attempts. The maximal weight lifted with proper form was recorded as the 1RM. After the 1RM was obtained, a 3-minute rest period was allowed before repetitions to failure (RTF) were completed using 70% of the 1RM. For all participants, the bench press was tested before the leg press in order to allow for recovery of the lower body following the mechanized squat testing.

[2] = Blood markers (lipids, glucose, insulin); type: in vivo, human; conditions: for Cholesterol Δ / Cholesterol Δ (%) / Glucose Δ / Glucose Δ (%) / HDL Δ / HDL Δ (%) / Insulin Δ / Insulin Δ (%) / LDL Δ / LDL Δ (%) / Triglycerides Δ / Triglycerides Δ (%) / VLDL Δ / VLDL Δ (%): baseline to W 8; for Cholesterol ES (d) / Glucose ES (d) / HDL ES (d) / Insulin ES (d) / LDL ES (d) / Triglycerides ES (d) / VLDL ES (d): effect size
Excerpt: At baseline and after 4 and 8 weeks of the intervention, participants completed two testing sessions: (1) a morning assessment conducted after an overnight fast for assessment of body composition, metabolism, vascular measures and subjective factors: and (2) an afternoon assessment of muscular performance, conducted in the non-fasted state. For morning assessments, participants reported to the laboratory after abstention from eating, drinking, exercising and utilizing caffeine or nicotine for ≥8 hours. Participants were interviewed to confirm adherence to these pre-assessment restrictions. The actual abstention from exercise was ≥14 hours due to the scheduling of exercise sessions. Participants reported to the laboratory wearing athletic clothing, and all metal and accessories were removed from the body prior to testing. Each participant voided her bladder and provided a urine sample. Urine samples were assessed for urine specific gravity (USG) using a digital refractometer (PA201X-093. Misco, Solon, Ohio. USA). Additionally, a standard urinary HCG test was performed to confirm that each participant was not pregnant. Finally, urinary samples were frozen at −80° C. for assessment of urinary HMB content after study unblinding. After voiding, each participant's body mass (BM) and height were determined via digital scale with stadiometer (Seca 769, Hamburg, Germany). Blood draws were performed at Texas Tech University Student Health Services after an overnight fast, and participants completed at-home saliva collections for assessment of the cortisol awakening response (CAR).
Blood samples collected by certified health professionals were transported via courier to a local clinical laboratory for analysis (University Medical Center Health System, Lubbock, Tex., USA). Testing was performed using standard instrumentation (Cobas 6000, Roche Diagnostics, Risch-Rotkreuz. Switzerland). Total cholesterol, triglycerides and HDL cholesterol were assessed using enzymatic colorimetric assays, and VLDL and non-HDL cholesterol were calculated. LDL cholesterol was calculated using the Martin-Hopkins equation (35). Glucose was measured using an enzymatic UV test, and insulin was assessed via electrochemiluminescence immunoassay. Results of the clinical laboratory analyses were provided to study investigators.

[3] = ITT analysis, Cohen's d baseline vs week 8
[4] = PP analysis, Cohen's d baseline vs week 8

With CC(C)(O)CC(=O)O [TRFHMB, β-hydroxy-β-methylbutyrate] the “1RMBP (kg) Week 4” value ([1]; ITT analysis) was 42.3 ± 2.4 kg, the “1RMBP (kg) Week 8” value ([1]; ITT analysis) was 47.3 ± 2.5 kg and the “1RMLP (kg) Week 8” value ([1]; ITT analysis) was 205.2 ± 15.0 kg. For the same compound, the “1RMLP ES (d)” value [1, 3] was 1.65, the “RTFBP ES (d)” value [1, 3] was 1.91 and the “RTFLP ES (d)” value [1, 3] was 1.52. For the same compound, the “1RMBP Δ (%)” value ([1]; ITT analysis) was 21%, the “1RMLP Δ (%)” value ([1]; ITT analysis) was 57% and the “RTFBP Δ (%)” value ([1]; ITT analysis) was 68%. The “RTFLP Δ (%)” value ([1]; ITT analysis) was 145%, the “RTFBP (reps) Week 4” value ([1]; ITT analysis) was 20.0 ± 1.6 reps and the “RTFBP (reps) Week 8” value ([1]; ITT analysis) was 24.9 ± 1.8 reps. The “RTFLP (reps) Week 8” value ([1]; ITT analysis) was 38.0 ± 5.4 reps, the “1RMBP (kg) Δ” value ([1]; ITT analysis) was 8 kg and the “1RMLP (kg) Δ” value ([1]; ITT analysis) was 75 kg. The “RTFBP (reps) Δ” value ([1]; ITT analysis) was 10 reps, the “RTFLP (reps) Δ” value ([1]; ITT analysis) was 23 reps and the “Average ES for muscular endurance (RTFLP and RTFBP)” value ([1]; PP analysis only, vs 2.3 in CD) was 1.5. The “1RMBP (kg) Week 4” value ([1]; PP analysis) was 43 ± 4 kg, the “1RMBP (kg) Week 8” value ([1]; PP analysis) was 48 ± 4 kg and the “1RMLP (kg) Week 8” value ([1]; PP analysis) was 220 ± 19 kg. For the same compound, the “1RMBP ES (d)” value [1, 4] was 0.76, the “1RMLP ES (d)” value [1, 4] was 1.80 and the “RTFBP ES (d)” value [1, 4] was 1.86. The “RTFLP ES (d)” value [1, 4] was 1.27, the “1RMBP Δ (%)” value ([1]; PP analysis) was 20% and the “1RMLP Δ (%)” value ([1]; PP analysis) was 51%. The “RTFBP Δ (%)” value ([1]; PP analysis) was 79%, the “RTFLP Δ (%)” value ([1]; PP analysis) was 94% and the “RTFBP (reps) Week 4” value ([1]; PP analysis) was 20 ± 2 reps. For the same compound, the “RTFBP (reps) Week 8” value ([1]; PP analysis) was 25 ± 3 reps, the “RTFLP (reps) Week 8” value ([1]; PP analysis) was 31 ± 6 reps and the “1RMBP (kg) Δ” value ([1]; PP analysis) was 8 kg. For the same compound, the “1RMLP (kg) Δ” value ([1]; PP analysis) was 74 kg, the “RTFBP (reps) Δ” value ([1]; PP analysis) was 11 reps and the “RTFLP (reps) Δ” value ([1]; PP analysis) was 15 reps. The Cholesterol ([2]; ITT, Baseline) was 178 ± 9 mg/dL, the Glucose ([2]; ITT, Baseline) was 90 ± 3 mg/dL and the HDL ([2]; ITT, Baseline) was 75 ± 4 mg/dL. For the same compound, the Insulin ([2]; ITT, Baseline) was 10 ± 2 mcU/mL, the LDL ([2]; ITT, Baseline) was 85 ± 7 mg/dL and the Triglycerides ([2]; ITT, Baseline) was 95 ± 10 mg/dL. For the same compound, the VLDL ([2]; ITT, Baseline) was 19 ± 2 mg/dL, the Cholesterol ([2]; ITT, W 8) was 183 ± 11 mg/dL and the Glucose ([2]; ITT, W 8) was 89 ± 3 mg/dL. For the same compound, the HDL ([2]; ITT, W 8) was 68 ± 5 mg/dL, the Insulin ([2]; ITT, W 8) was 13 ± 3 mcU/mL and the LDL ([2]; ITT, W 8) was 97 ± 7 mg/dL. For the same compound, the Triglycerides ([2]; ITT, W 8) was 85 ± 12 mg/dL, the VLDL ([2]; ITT, W 8) was 17 ± 2 mg/dL and the “Cholesterol Δ” value ([2]; ITT) was 5 mg/dL. For the same compound, the “Cholesterol Δ (%)” value ([2]; ITT) was 3%, the “Glucose Δ” value ([2]; ITT) was -1 mg/dL and the “Glucose Δ (%)” value ([2]; ITT) was −1%. For the same compound, the “HDL Δ” value ([2]; ITT) was -7 mg/dL, the “HDL Δ (%)” value ([2]; ITT) was −9% and the “Insulin Δ” value ([2]; ITT) was 3 mcU/mL. The “Insulin Δ (%)” value ([2]; ITT) was 30%, the “LDL Δ” value ([2]; ITT) was 12 mg/dL and the “LDL Δ (%)” value ([2]; ITT) was 14%. The “Triglycerides Δ” value ([2]; ITT) was -10 mg/dL, the “Triglycerides Δ (%)” value ([2]; ITT) was −11% and the “VLDL Δ” value ([2]; ITT) was -2 mg/dL. For the same compound, the “VLDL Δ (%)” value ([2]; ITT) was −11%, the “Cholesterol ES (d)” value ([2]; ITT) was 0.14 and the “Glucose ES (d)” value ([2]; ITT) was −0.09. The “HDL ES (d)” value ([2]; ITT) was −0.43, the “Insulin ES (d)” value ([2]; ITT) was 0.27 and the “LDL ES (d)” value ([2]; ITT) was 0.48. The “Triglycerides ES (d)” value ([2]; ITT) was −0.25, the “VLDL ES (d)” value ([2]; ITT) was −0.28 and the Cholesterol ([2]; PP, Baseline) was 168 ± 13 mg/dL. The Glucose ([2]; PP, Baseline) was 92 ± 4 mg/dL, the HDL ([2]; PP, Baseline) was 72 ± 5 mg/dL and the Insulin ([2]; PP, Baseline) was 9 ± 3 mcU/mL. It also gave an LDL ([2]; PP, Baseline) of 78 ± 9 mg/dL, a Triglycerides ([2]; PP, Baseline) of 91 ± 14 mg/dL and a VLDL ([2]; PP, Baseline) of 18 ± 3 mg/dL. It also gave a Cholesterol ([2]; PP, W 8) of 183 ± 15 mg/dL, a Glucose ([2]; PP, W 8) of 90 ± 4 mg/dL and an HDL ([2]; PP, W 8) of 70 ± 6 mg/dL. The Insulin ([2]; PP, W 8) was 10 ± 3 mcU/mL, the LDL ([2]; PP, W 8) was 96 ± 9 mg/dL and the Triglycerides ([2]; PP, W 8) was 80 ± 17 mg/dL. For the same compound, the VLDL ([2]; PP, W 8) was 16 ± 3 mg/dL, the “Cholesterol Δ” value ([2]; PP) was 15 mg/dL and the “Cholesterol Δ (%)” value ([2]; PP) was 9%. The “Glucose Δ” value ([2]; PP) was -2 mg/dL, the “Glucose Δ (%)” value ([2]; PP) was −2% and the “HDL Δ” value ([2]; PP) was -2 mg/dL. For the same compound, the “HDL Δ (%)” value ([2]; PP) was −3%, the “Insulin Δ” value ([2]; PP) was 1 mcU/mL and the “Insulin Δ (%)” value ([2]; PP) was 11%. The “LDL Δ” value ([2]; PP) was 18 mg/dL, the “LDL Δ (%)” value ([2]; PP) was 23% and the “Triglycerides Δ” value ([2]; PP) was -11 mg/dL. The “Triglycerides Δ (%)” value ([2]; PP) was −12%, the “VLDL Δ” value ([2]; PP) was -2 mg/dL and the “VLDL Δ (%)” value ([2]; PP) was −11%. The “Cholesterol ES (d)” value ([2]; PP) was 0.40, the “Glucose ES (d)” value ([2]; PP) was −0.19 and the “HDL ES (d)” value ([2]; PP) was −0.14. For the same compound, the “Insulin ES (d)” value ([2]; PP) was 0.55, the “LDL ES (d)” value ([2]; PP) was 0.76 and the “Triglycerides ES (d)” value ([2]; PP) was −0.27. For the same compound, the “VLDL ES (d)” value ([2]; PP) was −0.30.
